According to ChEMBL document CHEMBL5316291 (J Med Chem, 2023):
Active and inactive are the calls of the source. The rule behind the calls is not given here.

Tests used:
[1] = Tmax in ICR mouse at 1 mg/kg, iv measured upto 24 hrs by LC-MS/MS analysis; format: ADME, organism-based; conditions: in vivo
[2] = test system: CT26; assay: Antitumor activity against mouse CT26 cells xenografted in BALB/c mouse assessed as tumor growth inhibition at 25 mg/kg, po bid measured for 14 days; format: functional; conditions: CT26, 336 h, time 14 day, read-out: TGI
[3] = AUC(0 to infinity) in ICR mouse at 1 mg/kg, iv measured upto 24 hrs by LC-MS/MS analysis; format: ADME, organism-based; parameters: time < 24 hrs, dose 1 mg/kg, route iv; conditions: in vivo
[4] = target: Protein mono-ADP-ribosyltransferase PARP14 (Homo sapiens, UniProt Q460N5); assay: Inhibition of human recombinant N-terminal 6his-tagged / GST-tagged PARP14 (1470 to 1801 end residues) expressed in baculovirus infected Sf9 cells expression system incubated for 1 hr by ELISA assay
Chain of Protein mono-ADP-ribosyltransferase PARP14 (Q460N5 whole entry): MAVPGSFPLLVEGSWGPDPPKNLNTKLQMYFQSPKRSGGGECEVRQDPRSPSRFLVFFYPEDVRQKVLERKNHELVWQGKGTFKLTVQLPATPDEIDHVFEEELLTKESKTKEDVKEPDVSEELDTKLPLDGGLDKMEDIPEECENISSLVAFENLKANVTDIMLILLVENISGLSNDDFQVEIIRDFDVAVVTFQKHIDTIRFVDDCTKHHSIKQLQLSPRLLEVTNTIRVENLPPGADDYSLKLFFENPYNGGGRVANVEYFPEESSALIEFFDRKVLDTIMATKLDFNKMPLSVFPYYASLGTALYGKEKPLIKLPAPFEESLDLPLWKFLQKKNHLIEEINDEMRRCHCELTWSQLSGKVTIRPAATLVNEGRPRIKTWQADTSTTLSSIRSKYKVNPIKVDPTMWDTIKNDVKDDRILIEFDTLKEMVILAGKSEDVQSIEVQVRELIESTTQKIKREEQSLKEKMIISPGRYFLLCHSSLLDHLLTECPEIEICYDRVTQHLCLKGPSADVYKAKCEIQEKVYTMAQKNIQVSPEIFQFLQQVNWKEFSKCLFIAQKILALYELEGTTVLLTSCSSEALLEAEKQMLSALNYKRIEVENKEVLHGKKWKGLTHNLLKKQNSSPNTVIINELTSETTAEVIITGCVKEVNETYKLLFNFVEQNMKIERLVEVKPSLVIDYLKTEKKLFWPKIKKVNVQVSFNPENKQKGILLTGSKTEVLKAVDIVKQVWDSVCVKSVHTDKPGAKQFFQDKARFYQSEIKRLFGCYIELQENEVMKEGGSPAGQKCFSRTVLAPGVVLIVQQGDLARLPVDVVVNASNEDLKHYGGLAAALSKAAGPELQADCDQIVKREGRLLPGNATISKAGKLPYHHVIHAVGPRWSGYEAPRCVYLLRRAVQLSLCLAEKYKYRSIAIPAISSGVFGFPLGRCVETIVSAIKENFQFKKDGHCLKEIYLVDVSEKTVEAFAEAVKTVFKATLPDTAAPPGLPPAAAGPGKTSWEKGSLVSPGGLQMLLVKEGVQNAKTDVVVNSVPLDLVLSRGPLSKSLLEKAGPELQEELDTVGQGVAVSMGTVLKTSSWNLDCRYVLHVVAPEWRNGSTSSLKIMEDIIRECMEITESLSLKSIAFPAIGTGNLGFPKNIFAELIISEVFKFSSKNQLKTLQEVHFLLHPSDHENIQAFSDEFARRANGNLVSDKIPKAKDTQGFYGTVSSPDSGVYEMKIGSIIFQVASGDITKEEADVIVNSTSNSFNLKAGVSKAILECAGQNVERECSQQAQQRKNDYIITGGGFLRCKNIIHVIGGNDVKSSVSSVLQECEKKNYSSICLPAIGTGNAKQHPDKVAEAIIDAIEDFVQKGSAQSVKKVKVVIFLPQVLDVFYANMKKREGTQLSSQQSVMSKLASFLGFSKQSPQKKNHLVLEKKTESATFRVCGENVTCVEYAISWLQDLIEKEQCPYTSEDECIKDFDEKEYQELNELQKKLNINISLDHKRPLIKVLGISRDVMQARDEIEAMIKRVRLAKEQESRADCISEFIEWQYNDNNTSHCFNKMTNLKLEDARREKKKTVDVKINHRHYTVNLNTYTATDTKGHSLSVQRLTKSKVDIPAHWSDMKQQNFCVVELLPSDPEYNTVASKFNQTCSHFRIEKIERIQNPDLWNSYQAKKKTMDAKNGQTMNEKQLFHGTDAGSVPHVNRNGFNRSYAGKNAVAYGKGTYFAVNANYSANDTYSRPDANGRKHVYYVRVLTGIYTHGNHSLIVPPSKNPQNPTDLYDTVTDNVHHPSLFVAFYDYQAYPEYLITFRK

[5] = Toxicity in BALB/c mouse implanted with mouse CT26 cells assessed as spleen damage at 100 mg/kg, po measured for 14 days by hematoxylin and eosin staining based fluorescence microscopic analysis; format: organism-based; conditions: in vivo, 336 h, time 14 day
[6] = target: Poly [ADP-ribose] polymerase 2 (Homo sapiens, UniProt Q9UGN5); assay: Inhibition of human recombinant N-terminal GST-tagged PARP2 (2 to 583 residues) expressed in baculovirus infected Sf9 cells expression system incubated for 1 hr by ELISA assay
Chain of Poly [ADP-ribose] polymerase 2 (Q9UGN5 whole entry, the tested form may be a part): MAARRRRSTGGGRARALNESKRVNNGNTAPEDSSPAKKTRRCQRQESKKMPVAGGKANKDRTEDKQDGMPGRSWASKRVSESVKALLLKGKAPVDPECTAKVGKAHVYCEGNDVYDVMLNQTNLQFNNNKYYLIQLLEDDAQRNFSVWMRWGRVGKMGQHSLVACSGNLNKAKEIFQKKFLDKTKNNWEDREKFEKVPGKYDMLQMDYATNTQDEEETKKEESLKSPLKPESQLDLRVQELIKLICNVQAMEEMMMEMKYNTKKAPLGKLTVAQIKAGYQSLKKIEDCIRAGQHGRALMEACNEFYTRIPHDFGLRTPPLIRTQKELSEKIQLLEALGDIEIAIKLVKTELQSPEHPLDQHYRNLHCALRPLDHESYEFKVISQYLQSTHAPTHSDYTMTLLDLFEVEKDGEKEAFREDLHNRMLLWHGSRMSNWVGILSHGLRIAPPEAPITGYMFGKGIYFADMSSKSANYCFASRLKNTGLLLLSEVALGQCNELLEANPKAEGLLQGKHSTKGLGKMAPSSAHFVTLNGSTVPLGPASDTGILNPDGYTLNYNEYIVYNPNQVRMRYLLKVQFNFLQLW

[7] = target: Poly [ADP-ribose] polymerase 1 (Homo sapiens, UniProt P09874); assay: Inhibition of human recombinant N-terminal GST-tagged PARP1 (2 to 1014 end residues) incubated for 1 hr by ELISA assay
Chain of Poly [ADP-ribose] polymerase 1 (P09874 whole entry): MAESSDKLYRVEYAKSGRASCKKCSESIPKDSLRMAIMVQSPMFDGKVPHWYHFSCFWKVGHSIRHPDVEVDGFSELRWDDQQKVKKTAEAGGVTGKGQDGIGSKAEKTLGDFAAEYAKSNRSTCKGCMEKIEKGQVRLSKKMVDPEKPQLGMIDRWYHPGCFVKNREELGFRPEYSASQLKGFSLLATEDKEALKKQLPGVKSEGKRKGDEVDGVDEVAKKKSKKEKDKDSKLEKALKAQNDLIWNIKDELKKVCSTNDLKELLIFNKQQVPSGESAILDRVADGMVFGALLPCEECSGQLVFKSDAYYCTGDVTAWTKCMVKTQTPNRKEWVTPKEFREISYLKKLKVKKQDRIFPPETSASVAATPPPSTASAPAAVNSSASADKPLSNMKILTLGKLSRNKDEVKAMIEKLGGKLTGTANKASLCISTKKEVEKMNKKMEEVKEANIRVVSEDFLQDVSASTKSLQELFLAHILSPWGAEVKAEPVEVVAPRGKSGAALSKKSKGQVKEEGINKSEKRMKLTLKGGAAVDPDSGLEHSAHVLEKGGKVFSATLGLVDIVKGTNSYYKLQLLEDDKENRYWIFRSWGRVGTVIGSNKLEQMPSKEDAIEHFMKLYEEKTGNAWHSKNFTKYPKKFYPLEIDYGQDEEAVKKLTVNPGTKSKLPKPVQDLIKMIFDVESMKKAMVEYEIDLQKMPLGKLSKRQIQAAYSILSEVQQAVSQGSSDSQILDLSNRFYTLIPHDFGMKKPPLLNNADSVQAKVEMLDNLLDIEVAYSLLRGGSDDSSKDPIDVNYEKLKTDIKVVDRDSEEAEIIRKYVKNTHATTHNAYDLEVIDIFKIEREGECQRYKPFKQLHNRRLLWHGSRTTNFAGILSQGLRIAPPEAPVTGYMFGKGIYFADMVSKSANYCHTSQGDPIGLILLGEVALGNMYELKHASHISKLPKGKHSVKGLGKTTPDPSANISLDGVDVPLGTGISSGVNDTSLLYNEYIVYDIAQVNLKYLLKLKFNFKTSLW

[8] = target: T1, Protein mono-ADP-ribosyltransferase PARP11 (Homo sapiens, UniProt Q9NR21); assay: Inhibition of human recombinant N-terminal GST-tagged / C-terminal His-tagged PARP11 (8 to 338 end residues) expressed in baculovirus infected Sf9 cells expression system incubated for 1 hr by ELISA assay
T1 sequence (Q9NR21 whole entry): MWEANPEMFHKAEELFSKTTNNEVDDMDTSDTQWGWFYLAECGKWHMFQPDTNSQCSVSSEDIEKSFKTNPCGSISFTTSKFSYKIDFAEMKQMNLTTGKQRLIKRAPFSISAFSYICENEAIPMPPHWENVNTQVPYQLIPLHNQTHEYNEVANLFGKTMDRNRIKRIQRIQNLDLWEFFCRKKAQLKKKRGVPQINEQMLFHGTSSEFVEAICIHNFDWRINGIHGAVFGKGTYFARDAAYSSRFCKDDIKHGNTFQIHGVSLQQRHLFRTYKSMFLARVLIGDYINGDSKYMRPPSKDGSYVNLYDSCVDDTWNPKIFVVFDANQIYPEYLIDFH

[9] = Tmax in ICR mouse at 10 mg/kg, po measured upto 24 hrs by LC-MS/MS analysis; format: ADME, organism-based; conditions: in vivo
[10] = test system: CT26; assay: Antitumor activity against mouse CT26 cells implanted in BALB/c mouse assessed as nuclear chromatin margination at 25 to 100 mg/kg, po bid measured for 14 days by hematoxylin and eosin staining based fluorescence microscopic analysis; format: functional, organism-based; conditions: dose 25-100 mg/kg, time 14.0 day
[11] = MRT(0 to infinity) in ICR mouse at 1 mg/kg, iv measured upto 24 hrs by LC-MS/MS analysis; format: ADME, organism-based; conditions: in vivo
[12] = target: T2, Protein mono-ADP-ribosyltransferase TIPARP (Homo sapiens, UniProt Q7Z3E1); assay: Inhibition of human recombinant N-terminal FLAG-tagged PARP7 (400 to 657 end residues) incubated for 1 hr by ELISA assay
T2 sequence (Q7Z3E1 whole entry): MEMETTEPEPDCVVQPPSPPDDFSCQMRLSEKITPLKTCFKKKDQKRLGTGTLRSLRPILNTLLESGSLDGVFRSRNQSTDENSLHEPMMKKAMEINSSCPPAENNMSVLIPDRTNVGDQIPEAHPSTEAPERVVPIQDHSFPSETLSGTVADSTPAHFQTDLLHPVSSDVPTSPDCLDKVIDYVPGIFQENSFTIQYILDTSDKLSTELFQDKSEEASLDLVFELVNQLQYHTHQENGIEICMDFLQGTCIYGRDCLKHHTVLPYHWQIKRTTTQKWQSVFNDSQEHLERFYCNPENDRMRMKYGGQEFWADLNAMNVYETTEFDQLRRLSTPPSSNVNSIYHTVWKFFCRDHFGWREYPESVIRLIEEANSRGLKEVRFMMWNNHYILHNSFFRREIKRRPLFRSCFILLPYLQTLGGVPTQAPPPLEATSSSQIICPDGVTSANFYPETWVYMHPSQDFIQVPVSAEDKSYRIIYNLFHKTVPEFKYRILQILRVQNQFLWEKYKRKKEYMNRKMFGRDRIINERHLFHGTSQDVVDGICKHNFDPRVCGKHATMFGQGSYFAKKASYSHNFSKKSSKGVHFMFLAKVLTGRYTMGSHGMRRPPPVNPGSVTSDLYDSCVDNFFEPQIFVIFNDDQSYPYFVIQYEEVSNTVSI

[13] = test system: NCI-H1373; assay: cells; conditions: Homo sapiens, NCI-H1373, 144 h

C[C@@H](CN1CC(C(=O)N2CCN(c3ncc(C(F)(F)F)cn3)CC2)C1)Nc1cn[nH]c(=O)c1C(F)(F)F
Tmax [1]: 4.8 min
inhibition in vivo at 25 mg/kg [2]: 39%
AUC [3]: 591.1 ng·h/mL
IC50 [4]: 2170 nM
Activity [5]: Non-Toxic
IC50 [6]: 546 nM
IC50 [7]: > 5000 nM
IC50 [8]: 32200 nM
Tmax [9]: 0.58 h
Activity [10]: Active
MRT inf [11]: 1.68 h
IC50 [12]: 7.6 nM
IC50 [13]: 1090 nM
